Read-outs that look alike come from different tables or passages of the source. In the oligonucleotide strings, read from the 5' end, every base follows the letter of its sugar. An asterisk marks phosphorothioate; unmarked linkages are phosphodiester. Other units and linkages are bracketed, terminal groups are in braces. A string of capitals states the bases alone. e = 2'-O-(2-methoxyethyl) (MOE); [5mC] = 5-methylcytosine; d = 2'-deoxy (DNA)

One series relates to apolipoprotein B mRNA. Briefly: ob/ob mice (Example 50): apolipoprotein B mRNA levels in liver. The class given is in vivo, mouse. Conditions: high fat high cholesterol diet, 50 mg/kg i.p. twice a week, six weeks. In outline: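 Ob/ob mice on 60% kcal fat diet with 0.15% cholesterol received 50 mg/kg oligonucleotide i.p. twice weekly for six weeks, with saline and control oligonucleotides.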

The subject of series [1] is human apolipoprotein B protein. Briefly: Transgenic mice dosing study (Example 52): ELISA of human apolipoprotein B protein in liver. The class given is in vivo, human transgene in mouse. For orientation: In an ELISA, binding on a coated surface is turned into a signal by an enzyme label.
The test system of series [2] is mouse apolipoprotein B protein. Put plainly: Transgenic mice dosing study (Example 52): immunoblot of mouse apolipoprotein B protein in serum and liver. The class given is in vivo.
The nature of series [3]: Transgenic mice dosing study (Example 52): serum ALT and AST levels. Conditions: 10 or 25 mg/kg. The class given is in vivo, mouse.
The test system of series [4] is liver gene expression profile; lipid metabolism genes. Put plainly: Microarray and real-time PCR analysis of liver gene expression in lean versus high-fat fed mice (Example 65). Particulars: high fat fed C57Bl/6 mice. The class given is in vivo, mouse. Here is the method:
(§1) Male C57Bl/6 mice were divided into the following groups, consisting of 5 animals each: (1) mice on a lean diet, injected with saline (lean control); (2) mice on a high fat diet; (3) mice on a high fat diet injected with 50 mg/kg of the control oligonucleotide 141923 (SEQ ID NO: 858); (4) mice on a high fat diet given 20 mg/kg atorvastatin calcium (Lipitor®, Pfizer Inc.); (5) mice on a high fat diet injected with 10, 25 or 50 mg/kg ISIS 147764 (SEQ ID NO: 109). Saline and oligonucleotide treatments were administered intraperitoneally twice weekly for 6 weeks. Atorvastatin was administered daily for 6 weeks. At study termination, liver samples were isolated from each animal and RNA was isolated for Northern blot qualitative assessment, DNA microarray and quantitative real-time PCR. Northern blot assessment and quantitative real-time PCR were performed as described by other examples herein.
For DNA microarray analysis, hybridization samples were prepared from 10 μg of total RNA isolated from each mouse liver according to the Affymetrix Expression Analysis Technical Manual (Affymetrix, Inc., Santa Clara, Calif.). […] Signal values for each probe set were calculated using the Affymetrix Microarray Suite v5.0 software (Affymetrix, Inc., Santa Clara, Calif.). […]
(In qPCR the cycle at which signal appears reflects the starting amount.)

Series [5] is classed as in vivo, mouse. Particulars: for Cholesterol Levels / Glucose Levels / Lipoprotein Levels HDL / Lipoprotein Levels LDL / Lipoprotein Levels VLDL: ApoE knockout mice, high fat diet, six weeks; for Liver Enzyme Levels ALT / Liver Enzyme Levels AST: mouse, in vivo, ip. The source says: Female ApoE knockout mice ranged in age from 5 to 7 weeks and were placed on a normal diet for 2 weeks before study initiation. ApoE knockout mice were then fed ad libitum a 60% fat diet, with 0.15% added cholesterol to induce dyslipidemia and obesity. Control animals were maintained on a high-fat diet with no added cholesterol. […]
At study termination and forty eight hours after the final injections, animals were sacrificed and evaluated for target mRNA levels in liver by RT-PCR methods verified by Northern Blot analysis, glucose levels, cholesterol and lipid levels by HPLC separation methods and triglyceride and liver enzyme levels (performed by LabCorp Preclinical Services; San Diego, Calif.).
Data are normalized to saline controls.

Series [6] deals with mouse apolipoprotein B protein. Put plainly: High fat fed mice (Example 51): serum apolipoprotein B protein, immunoblot. Conditions: high fat fed C57Bl/6 mice; 50 mg/kg i.p. twice weekly. The class given is in vivo. From the text:
Furthermore, at 1, 2, 3 and 4 weeks of treatment, a inverse correlation between inhibition of target mRNA and cholesterol levels (total, HDL and LDL) is observed, with cholesterol levels lowering as percent inhibition of apolipoprotein B mRNA becomes greater. Serum samples were subjected to immunoblot analysis using an antibody to detect mouse apolipoprotein B protein (Gladstone Institute, San Francisco, Calif.).

Series [7] in a line: Evaluation of steatosis in high fat fed animals treated for 6 weeks, liver histology. The class given is in vivo, mouse. Conditions: high fat fed C57BL/6 mice; 6 weeks of treatment. The source says:
Tissue resected from liver is immediately immersed in Tissue Tek OCT embedding compound (Ted Pella, Inc., Redding, Calif.) and frozen in a 2-methyl-butane dry ice slurry. Tissue sections are cut at a thickness of 4-5 μm and then fixed in 5% neutral-buffered formalin. Tissue sections are stained with hematoxylin and eosin following standard histological procedures to visualize nuclei and cytoplasm, respectively, and oil red 0 according to the manufacturer's instructions (Newcomers Supply, Middleton, Wis.) to visualize lipids.
Alternatively, tissues are fixed in 10% neutral-buffered formalin, embedded in paraffin, sectioned at a thickness of 4-5 μm, deparaffinized and stained with hematoxylin and eosin, all according to standard histological procedures.
Liver tissue from ISIS 147764 (SEQ ID NO: 109) and control-treated animals described in Example 21 was evaluated for steatosis at study termination following 6 weeks of treatment. Tissue sections were stained with oil red 0 and hematoxylin to visualize lipids and nuclei, respectively. Tissue sections were also stained with hematoxylin and eosin to visualize nuclei and cytoplasm, respectively.

The nature of series [8]: High fat fed mice (Example 65): ALT and AST levels. The class given is in vivo, mouse. Conditions: 10, 25 and 50 mg/kg. Here is the method:
as §1
Mouse apolipoprotein B mRNA and serum cholesterol levels, measured as described herein, were evaluated to confirm antisense inhibition by ISIS 147764 and ISIS 147483. […] The 50 mg/kg dose of ISIS 147483 increased ALT and AST levels.

As to “147764 (eG*eT*e[5mC]*e[5mC]*e[5mC]*dT*dG*dA*dA*dG*dA*dT*dG*dT*d[5mC]*eA*eA*eT*eG*e[5mC]) [compound 147764]”, the “apolipoprotein B mRNA levels” value in the series with apolipoprotein B mRNA is given as “able to lower”. Moreover, in the series with apolipoprotein B mRNA (liver), the “mRNA % control ApoB” value came out at 43.1 % control.
With “ISIS 301012: SEQ ID NO: 247, antisense oligonucleotide targeted to human apolipoprotein B (antisense GCCTCAGTCTGCTTCGCACC; chemistry not given here)”, the “reduction in human apolipoprotein B protein in liver (ELISA)” value in [1] (10 mg/kg) was 80%; in series [1] (20 mg/kg (so in the source)), 82%. For the same substance, the “expression of the mouse apolipoprotein B protein in liver (immunoblot)” value in [2] was “does not change significantly”. The “expression of the mouse apolipoprotein B protein in serum (immunoblot)” value in series [2] is “no significant change”. For the same substance, the “AST and ALT levels in serum” value in [3] is “increased, yet did not exceed normal levels”.
Regarding “GTCCCTGAAGATGTCAATGC (2'-MOE gapmer, further chemistry not given here) [ISIS 147764]”, in series [4], the “mRNA expression of lipid metabolism genes (hepatic lipase, fatty acid synthase, ABCD2, FABP2, stearol CoA desaturase-1, HMG CoA reductase), real-time PCR” value is recorded as “reduction in mRNA expression”. The “liver gene expression profile (microarray)” value in series [4] (10, 25 or 50 mg/kg i.p. twice weekly, 6 weeks) was “drives the gene expression profile in high fat fed mice to the profile observed in lean mice”. For the same substance, in [5] (5 mg/kg i.p. every three days), the “Cholesterol Levels” value turned out to be 1630 mg/dL, the “Glucose Levels” value is 195 mg/dL, the “Lipoprotein Levels HDL” value is listed as 49 mg/dL and the “Lipoprotein Levels LDL” value is 475 mg/dL. For the same substance, the “Lipoprotein Levels VLDL” value in series [5] (5 mg/kg i.p. every three days) was found to be 1111 mg/dL. In [5] (25 mg/kg i.p. every three days), the “Cholesterol Levels” value is 1750 mg/dL, the “Glucose Levels” value is reported as 209 mg/dL, the “Lipoprotein Levels HDL” value came out at 62 mg/dL and the “Lipoprotein Levels LDL” value is 500 mg/dL. In series [5] (25 mg/kg i.p. every three days), the “Lipoprotein Levels VLDL” value is reported as 1194 mg/dL. Also, in series [5] (50 mg/kg i.p. every three days), the “Cholesterol Levels” value is reported as 1490 mg/dL, the “Glucose Levels” value is 191 mg/dL, the “Lipoprotein Levels HDL” value is 61 mg/dL and the “Lipoprotein Levels LDL” value worked out at 325 mg/dL. Moreover, the “Lipoprotein Levels VLDL” value in [5] (50 mg/kg i.p. every three days) is 1113 mg/dL. In series [5] (5 mg/kg), the “Liver Enzyme Levels ALT” value stood at 48 IU/L and the “Liver Enzyme Levels AST” value is 50 IU/L. Moreover, in series [5] (25 mg/kg), the “Liver Enzyme Levels ALT” value was determined as 59 IU/L and the “Liver Enzyme Levels AST” value turned out to be 60 IU/L. Also, in series [5] (50 mg/kg), the “Liver Enzyme Levels ALT” value was 87 IU/L and the “Liver Enzyme Levels AST” value is 85 IU/L. Moreover, the “apolipoprotein B protein in serum (immunoblot)” value in series [6] is on record as “markedly reduced within 48 hours”. In series [7], the “steatosis vs saline treated animals (histology)” value is recorded as “no difference in steatosis”. Further, the “ALT or AST levels” value in series [8] is “did not significantly elevate”.

For the origin of these results see patent US7803930B2, “Antisense modulation of apolipoprotein B-expression” (Isis Pharmaceuticals, Inc., priority 2002, dated 2010).
